In EP0768085A1, “ANTIBACTERIAL AGENT” (DAIICHI PHARMACEUTICAL CO., LTD., priority 1994, dated 1996) one finds MIC data, which are given here for four compounds.

≈ marks a conversion by molar mass, not a printed value.

Common to all, as to type: cell-based
In experiment [1] the test system is Pasteurella multocida (Kobe-6). The experiment can be described thus: Antibacterial activity (IC), broth microplate as in Example 4 (Example 6, Table 41). The conditions noted are these: 18 h, origin pig. As for the experimental part: (§1) A suitable amount of a sample was dissolved in dimethylsulfoxide (DMSO), and the resultant solution was diluted with the same amount of sterilized distilled water to prepare a bulk sample of 1,000 µg/ml. Mueller-Hinton broth (product of DIFCO) was dispensed into each well of 96-well microplate. Thereafter, the bulk specimen was added to the first well of a row, and successively diluted (10-fold each time) with sterilized distilled water. Separately, a bacterial cell suspension for the test (Staphylococcus aureus 209-P) which had been cultured in the above-mentioned broth overnight at 37°C was inoculated to each well so that the final inoculation amount of 10^6 CFU/ml was attained. The final concentrations of the samples were 100, 10, and 1 µg/ml.
(§2) The antibacterial action was evaluated by the inhibitory concentration (hereinafter abbreviated as IC) at which propagation of the bacteria cultured at 37°C for 18 hours was inhibited. Inhibition was determined by the turbidity of the medium. The expressions "IC≤100", "≤10", and "≤1" indicate that MIC-equivalent values obtained at the succesive […] dilution of the sample are 100-10 µg/ml, 10-1 µg/ml, and not more than 1 µg/ml, respectively. […] (In the subsequent Examples, the same rule applies correspondingly.) Table 39
In a manner similar to that described in Example 4, antibacterial activity of the invention compound was determined. The bacterium used for the test was Pasteurella Kobe-6 (origin: pig; Pasteurella multocida).

In experiment [2] the test system is Bordetella bronchiseptica (SM2-4). The experiment in a line: Antibacterial activity (IC), broth microplate as in Example 4 (Example 7, Table 42). As to conditions: 18 h. The method, then:
as §1, §2
In a manner similar to that described in Example 4, antibacterial activity of the invention compound was determined. The bacterium used for the test was Bordetella bronchiseptica (SM2-4).

In experiment [3] the test system is Staphylococcus aureus 209-P. The experiment in a line: Antibacterial activity (IC), Mueller-Hinton broth, 96-well microplate (Example 4, Table 39). The conditions noted are these: 37°C, 18 hours. As for the experimental part:
as §1, §2

Experiment [4] has as its system Staphylococcus aureus TI-1. The experiment can be described thus: Antibacterial activity (IC), broth microplate as in Example 4 (Example 5, Table 40). The conditions noted are these: TI1, 18 h. As for the experimental part: as §1, §2
In a manner similar to that described in Example 4, antibacterial activity of the invention compound was determined. The bacterium used for the test was Staphylococcus aureus TI-1.

The test system of experiment [5] is methicillin-resistant Staphylococcus aureus (MRSA) isolated from humans. The experiment can be described thus: Antibacterial activity (IC), Mueller-Hinton agar containing the sample (Example 8, Table 43). The conditions noted are these: Staphylococcus aureus, MRSA, 18 h. As for the experimental part:
as §2
A suitable amount of a sample was dissolved in dimethylsulfoxide (DMSO), after which the resulting solution was diluted with the same amount of sterilized distilled water to prepare a bulk sample of 1,000 µg/ml. Separately, a bacterial liquid for the test (methicillin-resistant Staphylococcus aureus (MRSA) isolated from humans) which had been cultured in Mueller-Hinton broth (product of DIFCO) was prepared and inoculated to a Mueller-Hinton agar (product of DIFCO) containing the sample so that the final inoculation amount of 10^6 CFU/ml was achieved. The final concentrations of the samples were 100, 10, and 1 µg/ml.
After culturing at 37°C for 18 hours, the antibacterial activity was evaluated in terms of IC in a manner similar to that described in Example 4.

A word on the MIC: it is the least concentration at which growth counts as inhibited. A low value points to inhibition by little substance. As to `Cc1cc(OC(C)C(=O)C(C#N)c2ccc(Cl)c(Cl)c2)ccc1Oc1ccc(C(F)(F)F)cc1Cl` (stereo not shown) [compound 44], the MIC in experiment [1] was 1 to 10 µg/mL (≈ 1.84 to 18.4 µM); in experiment [2], 10 to 100 µg/mL (≈ 18.4 to 184 µM); in experiment [3], at most 1 µg/mL; in experiment [4] it was at most 1 µg/mL; in experiment [5] (MRSA strain 891179, 37°C), at most 1 µg/mL; in experiment [5] (MRSA strain 891185, 37°C), at most 1 µg/mL. In addition, the MIC in experiment [5] (MRSA strain 891187, 37°C) was at most 1 µg/mL; in experiment [5] (MRSA strain 891192, 37°C) it was at most 1 µg/mL; in experiment [5] (MRSA strain 900048, 37°C), at most 1 µg/mL; in experiment [5] (MRSA strain 900056, 37°C), at most 1 µg/mL.

`Cc1cc(OC(C)C(=O)C(C#N)c2cccc(Br)c2)ccc1Oc1ccc(C(F)(F)F)cc1Cl` (stereo not shown) [compound 45]: the MIC in experiment [1] was 1 to 10 µg/mL (≈ 1.81 to 18.1 µM); in experiment [2] it was 10 to 100 µg/mL (≈ 18.1 to 181 µM); in experiment [3], 1 to 10 µg/mL (≈ 1.81 to 18.1 µM); in experiment [4], at most 1 µg/mL; in experiment [5] (MRSA strain 891179, 37°C), 1 to 10 µg/mL (≈ 1.81 to 18.1 µM); in experiment [5] (MRSA strain 891185, 37°C), 1 to 10 µg/mL (≈ 1.81 to 18.1 µM). The MIC in experiment [5] (MRSA strain 891187, 37°C) was 1 to 10 µg/mL (≈ 1.81 to 18.1 µM); in experiment [5] (MRSA strain 891192, 37°C), 1 to 10 µg/mL (≈ 1.81 to 18.1 µM); in experiment [5] (MRSA strain 900048, 37°C), 1 to 10 µg/mL (≈ 1.81 to 18.1 µM); in experiment [5] (MRSA strain 900056, 37°C) it was 1 to 10 µg/mL (≈ 1.81 to 18.1 µM).

Take `Cc1cc(Oc2ccc(C(F)(F)F)cc2Cl)ccc1OC(C)C(=O)C(C#N)c1ccc(Cl)c(Cl)c1` (stereo not shown) [compound 46]: the MIC was 10 to 100 µg/mL (≈ 18.4 to 184 µM) in experiment [1]; 10 to 100 µg/mL (≈ 18.4 to 184 µM) in experiment [2]; 1 to 10 µg/mL (≈ 1.84 to 18.4 µM) in experiment [3]; at most 1 µg/mL in experiment [4]; 1 to 10 µg/mL (≈ 1.84 to 18.4 µM) in experiment [5] (MRSA strain 891179, 37°C); 1 to 10 µg/mL (≈ 1.84 to 18.4 µM) in experiment [5] (MRSA strain 891185, 37°C). In addition, the MIC was at most 1 µg/mL in experiment [5] (MRSA strain 891187, 37°C); 1 to 10 µg/mL (≈ 1.84 to 18.4 µM) in experiment [5] (MRSA strain 891192, 37°C); at most 1 µg/mL in experiment [5] (MRSA strain 900048, 37°C); at most 1 µg/mL in experiment [5] (MRSA strain 900056, 37°C).

Turning to `Cc1cc(Oc2ccc(C(F)(F)F)cc2Cl)ccc1OC(C)C(=O)C(C#N)c1cccc(Br)c1` (stereo not shown) [compound 47], the MIC in experiment [1] was 10 to 100 µg/mL (≈ 18.1 to 181 µM); in experiment [2], 10 to 100 µg/mL (≈ 18.1 to 181 µM); in experiment [3] it was 1 to 10 µg/mL (≈ 1.81 to 18.1 µM); in experiment [4], at most 1 µg/mL; in experiment [5] (MRSA strain 891179, 37°C) it was 1 to 10 µg/mL (≈ 1.81 to 18.1 µM); in experiment [5] (MRSA strain 891185, 37°C), 1 to 10 µg/mL (≈ 1.81 to 18.1 µM). Further, the MIC is 1 to 10 µg/mL (≈ 1.81 to 18.1 µM) in experiment [5] (MRSA strain 891187, 37°C); 1 to 10 µg/mL (≈ 1.81 to 18.1 µM) in experiment [5] (MRSA strain 891192, 37°C); 1 to 10 µg/mL (≈ 1.81 to 18.1 µM) in experiment [5] (MRSA strain 900048, 37°C); 1 to 10 µg/mL (≈ 1.81 to 18.1 µM) in experiment [5] (MRSA strain 900056, 37°C).
